biological target: human PANK3 (Homo sapiens (Human), UniProt Q9H999); test: PANK activity assay (radiochemical, D-[1-14C]pantothenate); format: biochemical; conditions: 5 nM human PANK3, 2.5 mM ATP, 45 μM pantothenate, 10 min at 37° C.; average ± data range
Experimental: The PanK activity and Surface Plasmon Resonance assays were conducted as explained in the literature.
If the IC^50 was determined to be in the nM range then the assay was repeated in the presence of 0-1 μM or 0-0.1 μM compound to more precisely determine the IC^50. All the experiments were repeated twice in duplicate and the data were an average ±data range.
The experiments mimicking the mixture of ligands present in vivo were performed under different conditions. […] The IC^50 values for the structure-activity study were calculated by fitting the inhibition data to a one-site model of the Michaelis-Menten equation. […] Thus, the data were fit to Morrison's quadratic equation (GraphPad software) that accounts for the impact of enzyme inhibitor binding on the free concentration of inhibitor.

Sequence of human PANK3 (Q9H999 whole entry): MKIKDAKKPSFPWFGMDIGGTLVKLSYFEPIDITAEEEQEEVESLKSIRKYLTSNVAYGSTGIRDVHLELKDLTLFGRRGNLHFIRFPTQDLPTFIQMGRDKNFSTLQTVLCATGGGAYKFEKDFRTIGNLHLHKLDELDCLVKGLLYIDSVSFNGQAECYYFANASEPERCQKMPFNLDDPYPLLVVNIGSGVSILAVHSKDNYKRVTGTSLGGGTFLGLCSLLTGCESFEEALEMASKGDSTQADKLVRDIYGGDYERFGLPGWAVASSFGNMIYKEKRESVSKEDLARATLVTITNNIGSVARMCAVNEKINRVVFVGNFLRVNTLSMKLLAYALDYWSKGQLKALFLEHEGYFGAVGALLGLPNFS

Row | SMILES | IC50
1 | O=C(Cc1ccc(C2CC2)cc1)N1CCN(c2nc3ncc(Cl)cc3o2)CC1 [PZ-4359] | 1.23 ± 0.17 nM
2 | O=C(Cc1ccc(C2CC2)cc1)N1CCN(c2nc3ccc(F)cc3o2)CC1 [PZ-4304] | 14.3 ± 0.6 nM
3 | CN(C)c1ccc(CC(=O)N2CCN(c3nc4cccnc4s3)CC2)cc1 [PZ-4317] | 391 ± 129 nM
4 | CN(C)c1ccc(CC(=O)N2CCN(c3nc4ccccc4s3)CC2)cc1 [PZ-4290] | 370 ± 47 nM
5 | CS(=O)(=O)Nc1ccc(CC(=O)N2CCN(c3nc4cccnc4s3)CC2)cc1 [PZ-4321] | 5.67 ± 0.39 nM
6 | O=C(Cc1ccc(C2CC2)cc1F)N1CCN(c2nc3ncc(Cl)cc3o2)CC1 [PZ-4361] | 0.81 ± 0.15 nM
7 | CCS(=O)(=O)Nc1ccc(CC(=O)N2CCN(c3ccc(C#N)nn3)CC2)cc1 [PZ-4215] | 4 ± 0.3 nM
8 | O=C(Cc1ccc(C2CC2)cc1)N1CCN(c2nc3cc(F)ccc3o2)CC1 [PZ-4303] | 54 ± 6.4 nM
9 | CC(=O)OCC1(CNC(=O)Cc2ccc(C3CC3)cc2)CN(c2ccc(Cl)nn2)C1 [PZ-4510] | 1110 ± 852 nM
10 | O=C(Cc1ccc(C2CC2)c(F)c1)N1CCN(c2nc3ncccc3o2)CC1 [PZ-4348] | 5.7 ± 0.49 nM
11 | CC(C)c1ccc(CC(=O)NCC2(CCl)CN(c3nc4cc(F)cnc4o3)C2)cc1 [PZ-4473] | 7.51 ± 0.62 nM
12 | Cc1ccc2oc(N3CCN(C(=O)Cc4ccc(C5CC5)cc4)CC3)nc2n1 [PZ-4364] | 77.3 ± 8.2 nM
13 | O=C(Cc1ccc(C2CC2)cc1)NCC1(CCl)CN(c2nc3cc(F)cnc3o2)C1 [PZ-4472] | 21.8 ± 1.78 nM
14 | N#Cc1cnc(N2CCN(C(=O)Cc3ccc(C4CC4)cc3)CC2)cn1 [PZ-4284] | 27 ± 4 nM
15 | CC(C)c1ccc(CC(=O)N2CCN(c3nc4cc(F)cnc4o3)CC2)cc1 [PZ-4462] | 1.37 ± 0.16 nM
16 | O=C(Cc1ccc(C2CC2)cc1)N1CCN(c2nc3ccccc3[nH]2)CC1 [PZ-4312] | 987 ± 476 nM
17 | O=C(Cc1ccc(C2CC2)cc1)N1CCN(c2nc3c(F)cccc3s2)CC1 [PZ-4299] | 7.2 ± 1.3 nM
18 | CC(C)c1ccc(CC(=O)N2CCN(c3nc4cccnc4s3)CC2)cc1 [PZ-4432] | 3.95 ± 0.26 nM
19 | C[C@@H]1CN(c2ccc(Cl)nn2)CCN1C(=O)Cc1ccc(N(C)C)cc1 [PZ-4112] | 39.7 ± 4.7 nM
20 | CS(=O)(=O)Nc1ccc(CC(=O)N2CCN(c3nc4cccnc4o3)CC2)cc1 [PZ-4323] | 9.9 ± 1.6 nM
21 | CC(C)c1ccc(CC(=O)N2CCN(c3ncc4ccsc4n3)CC2)cc1 [PZ-4478] | 125 ± 19.2 nM
22 | C[C@H]1CN(c2ccc(Cl)nn2)CCN1C(=O)Cc1ccc(N(C)C)cc1 [PZ-4111] | 11.1 ± 0.7 nM
23 | C[C@@H]1CN(c2nc3cc(F)cnc3o2)CCN1C(=O)Cc1ccc(C2CC2)cc1 [PZ-4470] | 3.88 ± 0.24 nM
24 | O=C(Cc1ccc(C2CC2)cc1)N1CCN(c2nc3ccc(F)cc3s2)CC1 [PZ-4300] | 3.9 ± 0.3 nM
25 | O=C(Cc1ccc(C2CC2)cc1)N1CCN(c2nc3ncccc3o2)CC1 [PZ-4314] | 2.9 ± 0.1 nM
26 | CN(C)c1ccc(CC(=O)N2CCN(c3ccc(C#N)nn3)CC2)cn1 [PZ-4069, 6-(4-(2-(6-(dimethylamino)pyridin-3-yl)acetyl)piperazin-1-yl)pyridazine-3-carbonitrile] | 440 ± 45 nM
27 | CN(c1ccc(CC(=O)N2CCN(c3ccc(Cl)nn3)CC2)cc1)S(C)(=O)=O [PZ-4200] | 120 ± 11.2 nM

Row | SMILES | IC50
28 | CC(C)c1ccc(CC(=O)N2CCN(c3nc4cc(F)cnc4o3)[C@@H](C)C2)cc1 [PZ-4475] | 0.76 ± 0.05 nM
29 | CC(=O)Nc1ccc(CC(=O)N2CCN(c3ccc(C#N)nn3)CC2)cc1 [PZ-4070, N-(4-(2-(4-(6-cyanopyridazin-3-yl)piperazin-1-yl)-2-oxoethyl)phenyl)acetamide] | 65 ± 9.8 nM
30 | O=C(Cc1ccc(C2CC2)cc1F)N1CCN(c2nc3ccc(F)cc3o2)CC1 [PZ-4383] | 3.4 ± 0.33 nM
31 | CN(C)c1ccc(CC(=O)N2CCN(c3nc4c(F)cccc4s3)CC2)cc1 [PZ-4318] | 183 ± 71 nM
32 | O=C(Cc1ccc(C2CC2)cc1)N1CCN(c2nc3ccccc3o2)CC1 [PZ-4305] | 173 ± 48.5 nM
33 | CC(C)c1ccc(CC(=O)NCC2(CCl)CN(c3ccc(Cl)nn3)C2)cc1 [PZ-4468] | 1.2 ± 0.13 nM
34 | CC(C)c1ccc(CC(=O)N2CCN(c3nc4cc(F)cnc4o3)C[C@H]2C)cc1 [PZ-4471] | 0.88 ± 0.09 nM
35 | O=C(Oc1ccc(C2CC2)cc1)N1CCN(c2nc3ncc(F)cc3o2)CC1 [PZ-4436] | 2 ± 0.18 nM
36 | O=C(Cc1ccc(C2CC2)cc1)NCC1(CO)CN(c2ccc(Cl)nn2)C1 [PZ-4511, N-((1-(6-chloropyridazin-3-yl)-3-(hydroxymethyl)azetidin-3-yl)methyl)-2-(4-cyclopropylphenyl)acetamide] | 606 ± 237 nM
37 | O=C(Cc1ccc(C2CC2)cc1F)N1CCN(c2nc3cccnc3o2)CC1 [PZ-4344] | 7.6 ± 0.48 nM
38 | CN(C)c1ccc(CC(=O)N2CCN(c3nc4ncc(F)cc4o3)CC2)cc1 [PZ-4467] | 2.62 ± 0.18 nM
39 | CS(=O)(=O)Nc1ccc(CC(=O)N2CCN(c3nc4ncc(F)cc4o3)CC2)cc1 [PZ-4357] | 1.95 ± 0.25 nM
40 | O=C(Cc1ccc(C2CC2)cc1F)N1CCN(c2nc3ncc(F)cc3o2)CC1 [PZ-4352] | 0.86 ± 0.078 nM
41 | O=C(Cc1ccc(C2CC2)cc1)N1CCN(c2nc3cc(F)cnc3o2)CC1 [PZ-4386] | 2.1 ± 0.21 nM
42 | O=C(Nc1ccc(C2CC2)cc1F)N1CCN(c2nc3c(F)cc(F)cc3s2)CC1 [PZ-4433] | 1.79 ± 0.09 nM
43 | CN(C)c1ccc(CC(=O)N2CCN(c3nc4cccnc4o3)CC2)cc1 [PZ-4319] | 346 ± 100 nM
44 | O=C(Cc1ccc(C2CC2)c(F)c1)N1CCN(c2nc3ncc(Cl)cc3o2)CC1 [PZ-4360] | 5.6 ± 0.88 nM
45 | O=C(Cc1ccc(C2CC2)cc1)N1CCN(c2nc3ncc(F)cc3o2)CC1 [PZ-4350, 2-(4-cyclopropylphenyl)-1-(4-(6-fluorooxazolo[4,5-b]pyridin-2-yl)piperazin-1-yl)ethenone] | 1.1 ± 0.12 nM
46 | O=C(Cc1ccc(C2CC2)cc1F)N1CCN(c2nc3ncccc3o2)CC1 [PZ-4349] | 2.1 ± 0.26 nM
47 | O=C(Cc1ccc(Cl)cc1)N1CCN(c2nc3ncc(F)cc3o2)CC1 [PZ-4363] | 37.5 ± 2.4 nM
48 | O=C(Cc1ccc(C2CC2)c(F)c1)N1CCN(c2nc3cccnc3o2)CC1 [PZ-4343] | 49 ± 3 nM
49 | O=C(Cc1ccc(C2CC2)cc1)N1CCN(c2nc3cc(F)cnc3o2)CC1 [PZ-4463] | 10.3 ± 0.55 nM
50 | CC(C)c1ccc(NC(=O)N2CCN(c3nc4c(F)cc(F)cc4s3)CC2)cc1 [PZ-4434] | 1.04 ± 0.06 nM
51 | O=C(Cc1ccc(C2CC2)cc1)NCC1(CCl)CN(c2ccc(Cl)nn2)C1 [PZ-4469, N-((3-(chloromethyl)-1-(6-chloropyridazin-3-yl)azetidin-3-yl)methyl)-2-(4-cyclopropylphenyl)acetamide] | 5.4 ± 0.42 nM
52 | CC(C)c1ccc(CC(=O)N2CCN(c3nc4ncc(F)cc4o3)CC2)cc1 [PZ-4435] | 0.33 ± 0.02 nM
53 | C[C@H]1CN(C(=O)Cc2ccc(C3CC3)cc2)CCN1c1nc2cc(F)cnc2o1 [PZ-4474] | 1.37 ± 0.14 nM
54 | O=C(Cc1ccc(C2CC2)cc1)N1CCN(c2ncc3ccsc3n2)CC1 [PZ-4479] | 713 ± 294 nM

test system: Human C3A [HepG2/C3A] cells; test: Cellular total CoA determination in C3A cells; format: cell-based; conditions: 24 hrs of treatment
Experimental: Human C3A [HepG2/C3A, derivative of HepG2] cells (ATCC #CRL-10741) were purchased from ATCC® and maintained in Eagle's minimum Essential medium (ATCC) supplemented with 2 mM glutamine, 10% fetal bovine serum (FCS, Altanta Biologicals), 50 U/ml penicillin and […] streptomycin. The C3A cell line was confirmed to be mycoplasma-free. Test compounds or vehicle control (DMSO) was added and after 24 hrs of treatment the cells were washed with PBS and harvested and subjected to total CoA determination.
Cultured cells were resuspended in 2 ml cold water to which 500 μl of 0.25M KOH was added, derivatized with monobromobimane (mBBr, Life technologies) and quantified by HPLC. 30 mg of frozen tissue is homogenized in 2 ml of 1 mM KOH and then derivatized with mBBr. The mBBr derivatized samples were fractionated by reverse-phase HPLC using a Gemini C18 3 μm column (150×4.60 mm) from Phenomenex. The chromatography system was a Waters e2695 separation module with a UV/Vis and fluorescence detector and controlled by Empower 3 software. Solvent A was 50 mM potassium phosphate pH 4.6, and solvent B was 100% acetonitrile. Twenty microliters of sample was injected onto the column, and the flow rate was 0.5 ml/min. The HPLC program was the following: starting solvent mixture of 90% A/10% B, 0-2 min isocratic with 10% B, 2-6 min linear gradient from 10% B to 15% B, 6-18 min concave gradient from 15% B to 40% B, 18-23 min isocratic with 40% B, 23-25 min linear gradient from 40 to 10%, and 25-30 min isocratic with 10% B. The UV/vis detector was set at 393 nm, and the fluorescence detector was set with excitation at 393 nm and emission at 470 nm. The elution position of the mBBr-CoA, was determined by comparison with mBBr-CoA prepared from commercial CoA (Avanti Polar Lipids). The areas under the mBBr-derivatized CoA was integrated and compared to known concentrations of the mBBr-CoA standard.

Row | SMILES | C3A CoA% elevation
55 | O=C(Cc1ccc(C2CC2)cc1)N1CCN(c2nc3ccc(F)cc3o2)CC1 [PZ-4304] | 167%
56 | CCS(=O)(=O)Nc1ccc(CC(=O)N2CCN(c3ccc(C#N)nn3)CC2)cc1 [PZ-4215] | 160.9%
57 | N#Cc1cnc(N2CCN(C(=O)Cc3ccc(C4CC4)cc3)CC2)cn1 [PZ-4284] | 448.2%
58 | O=C(Cc1ccc(C2CC2)cc1)N1CCN(c2nc3c(F)cccc3s2)CC1 [PZ-4299] | 228.4%
59 | O=C(Cc1ccc(C2CC2)cc1)N1CCN(c2nc3ccc(F)cc3s2)CC1 [PZ-4300] | 242.5%
60 | O=C(Cc1ccc(C2CC2)cc1)N1CCN(c2nc3ncccc3o2)CC1 [PZ-4314] | 275%
61 | O=C(Cc1ccc(C2CC2)cc1)N1CCN(c2ccc(C(F)(F)F)nn2)CC1 [PZ-4283, 2-(4-cyclopropylphenyl)-1-(4-(6-(trifluoromethyl)pyridazin-3-yl)piperazin-1-yl)ethanone] | 218.2%
62 | CCS(=O)(=O)Nc1ccc(CC(=O)N2CCN(c3ccc(Cl)nn3)CC2)cc1 [PZ-4216] | 54.9%
63 | CS(=O)(=O)Nc1ccc(CC(=O)N2CCN(c3ccc(C#N)nn3)CC2)cc1 [PZ-4202] | 183.3%
64 | CN(C)c1ccc(CC(=O)N2CCN(c3ccc(C#N)nn3)CC2)cc1 [PZ-4060, 6-(4-(2-(4-(dimethylamino)phenyl)acetyl)piperazin-1-yl)pyridazine-3-carbonitrile] | 230.5%
65 | CN(C)c1ccc(CC(=O)N2CCN(c3ccc(Cl)nn3)CC2)cc1 [PZ-4061, 1-(4-(6-chloropyridazin-3-yl)piperazin-1-yl)-2-(4-(dimethylamino)phenyl)ethanone] | 418.7%
66 | CS(=O)(=O)Nc1ccc(CC(=O)N2CCN(c3ccc(C(F)(F)F)nn3)CC2)cc1 [PZ-4295] | 140.8%
67 | CC(=O)Nc1ccc(CC(=O)N2CCN(c3ccc(Cl)nn3)CC2)cc1 [PZ-4071, N-(4-(2-(4-(6-chloropyridazin-3-yl)piperazin-1-yl)-2-oxoethyl)phenyl)acetamide] | 185.3%
